Assay results published in paper PMC10344891, “Continuous enzyme activity assay for high-throughput classification of histone deacetylase 8 inhibitors” (Exploration of Targeted Anti-tumor Therapy, 2023).
Where a name gives a salt, the structure may show the parent alone. Read-outs that look alike come from different tables or passages of the source.

Columns and labels:
[1] = target: T1, human KDAC8 (Homo sapiens, UniProt Q9BY41); assay: Michaelis-Menten kinetics with the continuous KDAC8 assay; type: biochemical; design: full-length human KDAC8 was produced in E. coli BL21 (DE3); His6-SUMO (N, cleaved yes); made in house; host or cells: E. coli BL21 (DE3), pET14b vector; conditions: n = 3
T1 sequence (Q9BY41 1-377): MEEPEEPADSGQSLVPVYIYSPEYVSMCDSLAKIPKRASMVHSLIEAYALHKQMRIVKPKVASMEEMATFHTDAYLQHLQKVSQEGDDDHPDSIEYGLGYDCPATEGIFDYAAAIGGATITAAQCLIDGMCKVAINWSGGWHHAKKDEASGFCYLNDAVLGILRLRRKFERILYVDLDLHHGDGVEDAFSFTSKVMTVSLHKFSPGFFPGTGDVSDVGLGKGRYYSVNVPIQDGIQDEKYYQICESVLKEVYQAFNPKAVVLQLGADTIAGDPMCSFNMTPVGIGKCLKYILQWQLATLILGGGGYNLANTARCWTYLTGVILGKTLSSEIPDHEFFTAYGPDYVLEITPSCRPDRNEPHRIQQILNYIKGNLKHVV
Procedure: The measurements were carried out in a black 96-well microtiter plate (Greiner) at 30°C in assay buffer (see above). A serial two-fold dilution ranging from 50 µmol/L substrate, Boc-Lys(TFA)-AMC (Bachem), to 780 nmol/L, was prepared in an assay buffer containing 0.1 mg/mL trypsin. The enzymatic reaction was initiated by the addition of 10 nmol/L KDAC8. […] The data points were plotted against time and blank corrected. For the determination of Michaelis-Menten parameters, a linear regression analysis of the initial slope (vi) of each curve was performed. Slopes were transformed into rates of AMC product formation using a calibration curve with different AMC concentrations. The obtained enzyme conversion rates were plotted against the respective substrate concentration and fitted to the Michaelis-Menten function using GraphPad Prism software. The turnover number (kcat) was calculated as
where vi is the substrate conversion rate and E is the enzyme concentration. All solutions were pre-incubated at 30°C.

[2] = target: T1, human KDAC8; assay: Continuous (one-step) KDAC8 enzyme activity assay, IC50 determination; type: biochemical; design: full-length human KDAC8 was produced in E. coli BL21 (DE3); His6-SUMO (N, cleaved yes); made in house; host or cells: E. coli BL21 (DE3), pET14b vector; conditions: for IC50: 10 nmol/L KDAC8, 60 min pre-incubation at 30°C, 20 µmol/L Boc-Lys(TFA)-AMC, 0.1 mg/mL trypsin, mean ± SD, n = 3; for Inhibition mode: classification of mode of action on KDAC8; for Time-dependence of IC50 values: pre-incubation times 5 min to 60 min, 100 nmol/L KDAC8
[3] = target: T1, human KDAC8; assay: Progress curves of continuous KDAC8 assay: relative KDAC8 activity after 5,000 s (stabilization curves); conditions: ratio of late-stage to early-stage slopes, normalized to free KDAC8
Procedure: The measurements were carried out in a black 96-well half-area microtiter plate (Greiner) at 30°C in assay buffer (see above). The respective ligand was diluted in Master Mix (see above) and binding kinetics were initiated by the addition of 10 nmol/L KDAC8. […] All solutions were pre-incubated at 30°C. Slopes were calculated for the early-stage (1,000 s to 2,000 s) and the late-stage (5,000 s to 6,000 s) using linear regression. The relative KDAC8 activity in the presence of different inhibitor concentrations was calculated as the ratio of the late-stage and early-stage slopes and normalized to free KDAC8 enzyme.

[4] = target: T1, human KDAC8; assay: Two-step endpoint KDAC8 activity assay, IC50 determination; type: biochemical; design: full-length human KDAC8 was produced in E. coli BL21 (DE3); His6-SUMO (N, cleaved yes); made in house; host or cells: E. coli BL21 (DE3), pET14b vector; conditions: 20 µmol/L Boc-Lys(TFA)-AMC, stopped with SATFMK, trypsin development, n = 3
[5] = target: T1, human KDAC8; assay: Thermal shift assay (SYPRO orange melting curves); type: binding; design: full-length human KDAC8 was produced in E. coli BL21 (DE3); His6-SUMO (N, cleaved yes); made in house; host or cells: E. coli BL21 (DE3), pET14b vector; conditions: for ΔTm at 100 µM: read-out: ΔTm (thermal stabilization of KDAC8)
Procedure: By utilizing a QuantStudio™ 5 real-time quantitative polymerase chain reaction (qPCR) system (Thermo Fisher Scientific), protein melting curves with SYPRO® orange as fluorescence dye were generated. […] A DMSO control without ligand was utilized as a positive control. After mixing the components, the samples were incubated at 30°C for 1 h in the real-time qPCR system to assure binding equilibrium. […] The fluorescence signal was plotted against the temperature. The melting point was calculated as the point of inflection of the first derivative using protein thermal shift software (Thermo Fisher Scientific).

[6] = system: trypsin; assay: Trypsin inhibition counter-assay (Bz-Arg-PNA); type: biochemical; conditions: 0.1 mg/mL trypsin, 400 µmol/L Bz-Arg-PNA, any applied concentration
Procedure: where EA stands for the enzyme activity at a given ligand concentration x, Emax and E0 are the enzyme activities without ligand and under complete inhibition, respectively. IC50 is the ligand concentration at which half of the enzyme activity is inhibited and h is a measure of the steepness of the dose-response curve. […] All solutions were pre-incubated at 30°C. The two-step IC50 determination has been described previously. In short: KDAC8 was incubated with the respective ligands, and the enzymatic reaction was started by the addition of 20 µmol/L Boc-Lys(TFA)-AMC substrate (Bachem). […]. In this endpoint assay, the fluorescence signal was correlated to […] and normalized with a positive control without ligand. Data analysis was performed as described above. For IC50 determination due to trypsin inhibition, the basic IC50 procedure was identical. In the assay 0.1 mg/mL trypsin and 400 µmol/L Bz-Arg-PNA (Bachem) were used. The change in substrate absorbance was recorded in a microplate reader (Spark®, Tecan) at 405 nm. In this endpoint assay, the absorbance signal was correlated to […] and normalized with a positive control without ligand. Data analysis was performed as described above.

[7] = system: KDAC11; conditions: cited from earlier work
[8] = 100 µmol/L inhibitor, 12 µmol/L KDAC8, 1 h at 30°C before melting

Row | SMILES | Km ([1]; assay buffer (low salt), 10 nmol/L KDAC8, 30°C) [µM] | kcat ([1]; assay buffer) [s⁻¹] | IC50 [2] [nM] | Inhibition mode [2] | Time-dependence of IC50 values [2] | Stabilization of KDAC8 activity (relative KDAC8 activity after 5,000 s vs free enzyme) [3] | IC50 [4] [nM] | ΔTm (thermal stabilization of KDAC8) [5, 8] [°C] | ΔTm at 100 µM [5, 8] [°C] | Effect on trypsin activity [6] | Time to establish binding equilibrium with KDAC8 ([2]; deduced from unchanged IC50 at shortest pre-incubation time) | Stabilization of KDAC11 [7] | ΔTm at 100 µM [5] [°C]
1 | Cc1cc(=O)oc2cc(NC(=O)[C@H](CCCCNC(=O)C(F)(F)F)NC(=O)OC(C)(C)C)ccc12 [Boc-Lys(TFA)-AMC, tert-butyl N-[(1S)-1-[(4-methyl-2-oxo-chromen-7-yl)carbamoyl]-5-[(2,2,2-trifluoroacetyl)amino]pentyl]carbamate] | 8.9 ± 1.6 | 0.034 ± 0.002 | – | – | – | – | – | – | – | – | – | – | –
2 | CCN1C(=O)C=CC1=O [NEM, N-ethylmaleimide] | – | – | 320 ± 90 | Covalent inactivation | significant changes in IC50-values over time | do not preserve the relative KDAC8 activity | 780 ± 180 | 4.58 ± 0.26 | 4 to 5 | no effect against trypsin | – | – | –
3 | O=C(CCCCCCC(=O)Nc1ccccc1)NO [SAHA, suberoylanilide hydroxamic acid] | – | – | – | Fast reversible binding | no time-dependent change in IC50-values | – | – | – | – | – | less than 5 min | capable of stabilizing KDAC11 | 8.5 ± 0.06
4 | CC(/C=C/C(=O)NO)=C\[C@H](C)C(=O)c1ccc(N(C)C)cc1 [TSA, trichostatin A] | – | – | – | Fast reversible binding | – | – | – | – | – | – | – | – | 11.96 ± 0.06
5 | O=[N+]([O-])c1ccc(CCS(=O)(=O)c2nc(Cl)ns2)cc1 [TJ-19-29, 3-chloro-5-[2-(4-nitrophenyl)ethanesulfonyl]-1,2,4-thiadiazole] | – | – | 30 ± 9 | Covalent inactivation | – | do not preserve the relative KDAC8 activity | 120 ± 40 | 4.4 ± 0.3 | 4 to 5 | no effect against trypsin | – | – | –
